# Tests used:
# [1] = Back-fire test of aerosol sprayers loaded with various gases (Test Example 1); conditions: sprayed 5 seconds towards burner flame, sprayer at 25° C.
# Description: (§1) Test Example 1 relates to back-fire tests for the aerosol sprayer using various gases. Specifically, aerosol sprayers loaded with various gases acting as both propellant and refrigerant were prepared. And, after these aerosol sprayers were immersed in a thermostatic bath at 25° C. for 1 hour, each of them was arranged with the flame, as a fire origin, of an ignited burner so that the spray nozzle of its head cap and the flame lied horizontally in the same height. And, each gas was sprayed from the spray nozzle of the head cap in the aerosol sprayer for 5 seconds towards the flame as the fire origin to check if there was a backfire. This was repeated a plurality of times. Here, the fire origin was spaced from the spray nozzle at a distance of 15 cm and at a distance of 60 cm.
# Further, HFO-1234ze as another alternative for chlorofluorocarbon was also subjected to the same backfire tests as for HFC-152a and HFC-134a in Text Example 1 mentioned above.
# [2] = Mode of spraying: average particle size and minimum temperature of target area (Test Example 3); type: physicochemical
# Description: (§2) In Test Example 3, modes of spraying from the spray nozzle 10 in the head cap 2 were examined. This is to examine the refrigerating and behavioral inhibiting effects on a noxious insect by a noxious insect behavioral inhibitor A which is sprayed from the spray nozzle 10. Specifically, a wooden flooring was prepared on which a glass ring (having a diameter of 9 cm and a height of 6 cm) was placed. […] And, one female adult of Periplaneta fuliginosa is introduced inside of the glass ring. On the other hand, two different head caps were prepared, one provided with a single spray nozzle 10 and the other provided with a pressure reducer means comprising an upper and a lower spray nozzle 10a and 10b. And, using them, the noxious insect behavioral inhibitor A is sprayed for 3 seconds toward the Periplaneta fuliginosa from a distance of 50 cm therefrom, and the state of the Periplaneta fuliginosa thereafter (possible knockdown after 2 minutes and after 1 hour and fatality after 24 hours) is observed. Further, the minimum temperatures of a target area of spraying are measured. And, the room temperature is 25° C., and the noxious insect behavioral inhibitor A is HFC-152a alone (100%). The two head caps 2, the one with the single spray nozzle 10 and the other with the two spray nozzles 10, are made to spray substantially at a identical rate of spraying.
# (§3) Also, in Test Example 3, noxious insect behavioral inhibitors containing HFO-1234ze alone (100%), at a content of 75% and at a content of 50% were examined. What is mixed is dimethyl ether.
# [3] = Back-fire test on content of HFC-152a / HFO-1234ze mixed with LPG or dimethyl ether (Test Example 2); conditions: varied mixture ratio, sprayed 5 seconds towards burner flame
# Description: as §1, with “In Test” for “Test”, “Example 2, aerosol sprayers using HFC-152a as an alternative for chlorofluorocarbon were tested on its content. This, too,” for “Example 1”, “back-fire tests.” for “back-fire tests for the aerosol sprayer using various gases.”, “with HFC-152a alone” for “with various gases acting as both propellant”, “and mixtures of HFC-15a with LPG or dimethyl ether (in varied mixture ratio)” for “and refrigerant”, “15” for “15 cm and at a distance of 60”
# Further, HFO-1234ze as another alternative for chlorofluorocarbon was also tested on its content as in Text Example 2 above. Specifically, aerosol sprayers loaded with HFO-1234ze alone and mixtures of HFO-1234ze with LPG or dimethyl ether (in varied mixture ratio) were prepared. […]
# Periplaneta fuliginosa = assay: Biological test: knockdown and fatality after 3 second spray from 50 cm (Test Example 3); type: in vivo; conditions: female adult
# Description: as §2, §3
# [4] = two spray nozzles (upper 1.5 mm, lower 1.8 mm)
# [5] = single spray nozzle (1.5 mm diameter), n = 10
# [6] = two spray nozzles (upper 1.5 mm, lower 1.8 mm), n = 10
Average particle size ([2]; single spray nozzle (1.5 mm diameter)) [μm],SMILES,"Backfire, 15 cm distant from Fire Origin [1]","Backfire, 60 cm distant from Fire Origin [1]","Average particle size [2, 4] [μm]","Backfire, 15 cm distant from Fire Origin (content test) [3]",Fatality after 24 hours (Periplaneta fuliginosa; [5]) [%],Knockdown rate after 1 hour (Periplaneta fuliginosa; [5]) [%],"Knockdown rate after 2 minutes (Periplaneta fuliginosa; single spray nozzle (1.5 mm diameter), n = 10, room temperature 25° C.) [%]",Fatality after 24 hours (Periplaneta fuliginosa; [6]) [%],Knockdown rate after 2 minutes (Periplaneta fuliginosa; [6]) [%],Knockdown rate after 1 hour (Periplaneta fuliginosa; [6]) [%]
,FCC(F)(F)F [HFC-134a (100%)],Not Backfired,Not Backfired,,,,,,,,
57,"CC(F)F [HFC-152a (100%), 1,1-difluoroethane]",Not Backfired,Not Backfired,97,Not Back-fired,10,40,90,100,100,100
,"FC=CC(F)(F)F [HFO-1234ze (100%), 1,3,3,3-tetrafluoropropene]",Not Backfired,Not Backfired,120,Not Back-fired,,,,60,100,100
,"COC [dimethyl ether (100%), dimethyl ether, reference compound]",Backfired,Backfired,,,,,,,,
